US20250387331A1, “PROSTAGLANDIN ANALOGS AND METHODS FOR SUSTAINED GLAUCOMA MANAGEMENT” (Peregrine Ophthalmic PTE LTD, priority 2024, published 2025)

Key:
rabbit eye [1] = experiment: IOP after suprachoroidal liposomal latanoprost or daily topical latanoprost (Example 2); format: in vivo, Dutch-Belt rabbits; conditions: daily eye drops 0.005% for two weeks
Protocol: A suprachoroidal injector (SupraMedical, Israel) was used that has a 30-gauge needle attached to an extension tubing connected to a 1 ml syringe. The length of the injector is adjusted by inputting readings of scleral thickness combined with a correction factor, supplied on a calibration table from the manufacturer. The scleral thickness was determined by ultrasound bio-microscopy (UBM). After the depth dial was set to the correct position, the plunger of the injector and the syringe were depressed simultaneously. Injections were delivered over 5-10 seconds. After the drug formulation or control was delivered, the plunger was released, and the injector gradually removed.
Rabbits receiving suprachoroidal injection had their scleral thickness measured with Optovue RTVue OCT. The thickness of the sclera was measured at 3 mm posterior to the corneoscleral junction. An average of three readings were taken to determine the mean scleral thickness. The length of the needle on the injector was subsequently calibrated by adding 300 μm to the mean scleral thickness. […]
Four Dutch-Belt rabbits (n=8 eyes) were used in this study. Baseline IOP was measured using a calibrated Tonopen XL® (Reichert Ophthalmic Instruments, Depew, NY). […] Animals were handled consistently to ensure stable IOP readings. […]
Three readings were taken for each eye and an average obtained. […]

rabbit eye [2] = conditions: in vivo
Protocol: OCT macula were captured at baseline, at week 1, and at 4 week intervals thereafter.
P values were calculated using a 2 tailed t-test.

- Mean retinal thickness (rabbit eye [2]): 131.44 μm
SMILES: CC(C)OC(=O)CCC/C=C\C[C@@H]1[C@@H](CC[C@@H](O)CCc2ccccc2)[C@H](O)C[C@@H]1O [Topical latanoprost, latanoprost]
- maximum decrease in IOP (rabbit eye [1]): 38%
